Measurements from the supplement of paper PMC10307832.

Columns and labels:
Experiment in all cases: relative viability (nuclei count vs DMSO), 5 days (fraction); higher = more cells survive
[1] = tested on: 201T
Procedure, shortened: (§1)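 Medians of duplicate plates are given as relative viability. That measure is the nuclei count in treated wells divided by the count in vehicle wells. Counts were taken on 4× images of lung cancer cell lines in 1536-well plates, 5 days after pin-tool dosing the day after seeding with one drug alone or a fixed anchor-drug dose plus five library-drug doses (not always all listed) in √10 steps.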

[2] = tested on: COR-L23
Procedure, shortened: as §1

[3] = tested on: EPLC-272H
Procedure, shortened: as §1

[4] = tested on: H3255
Procedure, shortened: as §1

[5] = tested on: HCC-15
Procedure, shortened: as §1

[6] = tested on: LOU-NH91
Procedure, shortened: as §1

[7] = tested on: NCI-H1563
Procedure, shortened: as §1

[8] = tested on: NCI-H1650
Procedure, shortened: as §1

[9] = tested on: NCI-H1734
Procedure, shortened: as §1

[10] = tested on: NCI-H1793
Procedure, shortened: as §1

[11] = tested on: NCI-H2023
Procedure, shortened: as §1

[12] = tested on: NCI-H2170
Procedure, shortened: as §1

[13] = tested on: NCI-H2347
Procedure, shortened: as §1

[14] = tested on: NCI-H2405
Procedure, shortened: as §1

[15] = tested on: NCI-H3122
Procedure, shortened: as §1

[16] = tested on: NCI-H322M
Procedure, shortened: as §1

[17] = tested on: NCI-H441
Procedure, shortened: as §1

[18] = tested on: NCI-H520
Procedure, shortened: as §1

[19] = tested on: NCI-H647
Procedure, shortened: as §1

[20] = tested on: PC-14
Procedure, shortened: as §1

[21] = tested on: SW 900
Procedure, shortened: as §1

[22] = tested on: UMC-11
Procedure, shortened: as §1

Work on `CC(=O)O[C@@]12CO[C@@H]1C[C@H](O)[C@@]1(C)C(=O)[C@H](O)C3=C(C)[C@@H](OC(=O)[C@H](O)[C@@H](NC(=O)OC(C)(C)C)c4ccccc4)C[C@@](O)([C@@H](OC(=O)c4ccccc4)[C@H]21)C3(C)C` [Docetaxel] + Cc1nc(Nc2ncc(C(=O)Nc3c(C)cccc3Cl)s2)cc(N2CCN(CCO)CC2)n1 [Dasatinib] (partner 0.075 µM) yielded a relative viability ([1]; first compound 0.0002 µM) of 0.562, a relative viability ([1]; first compound 0.000632 µM) of 0.548 and a relative viability ([1]; first compound 0.002 µM) of 0.52. It also gave a relative viability ([1]; first compound 0.006325 µM) of 0.46, a relative viability ([1]; first compound 0.02 µM) of 0.282 and a relative viability ([2]; first compound 0.0002 µM) of 0.458. It also gave a relative viability ([2]; first compound 0.000632 µM) of 0.406, a relative viability ([2]; first compound 0.002 µM) of 0.226 and a relative viability ([2]; first compound 0.006325 µM) of 0.112. It also gave a relative viability ([2]; first compound 0.02 µM) of 0.0725, a relative viability ([3]; first compound 0.0002 µM) of 0.358 and a relative viability ([3]; first compound 0.000632 µM) of 0.235. It also gave a relative viability ([3]; first compound 0.002 µM) of 0.142, a relative viability ([3]; first compound 0.006325 µM) of 0.107 and a relative viability ([3]; first compound 0.02 µM) of 0.0615. For the same molecule, the relative viability ([4]; first compound 0.0002 µM) was 0.378, the relative viability ([4]; first compound 0.000632 µM) was 0.439 and the relative viability ([4]; first compound 0.002 µM) was 0.276. The relative viability ([4]; first compound 0.006325 µM) was 0.309, the relative viability ([4]; first compound 0.02 µM) was 0.252 and the relative viability ([5]; first compound 0.0002 µM) was 0.456. The relative viability ([5]; first compound 0.000632 µM) was 0.221, the relative viability ([5]; first compound 0.002 µM) was 0.16 and the relative viability ([5]; first compound 0.006325 µM) was 0.21. For the same molecule, the relative viability ([5]; first compound 0.02 µM) was 0.115, the relative viability ([6]; first compound 0.0002 µM) was 0.553 and the relative viability ([6]; first compound 0.000632 µM) was 0.533. The relative viability ([6]; first compound 0.002 µM) was 0.345, the relative viability ([6]; first compound 0.006325 µM) was 0.304 and the relative viability ([6]; first compound 0.02 µM) was 0.247. For the same molecule, the relative viability ([7]; first compound 0.0002 µM) was 0.433, the relative viability ([7]; first compound 0.000632 µM) was 0.454 and the relative viability ([7]; first compound 0.002 µM) was 0.423. It also gave a relative viability ([7]; first compound 0.006325 µM) of 0.406, a relative viability ([7]; first compound 0.02 µM) of 0.339 and a relative viability ([8]; first compound 0.0002 µM) of 0.263. The relative viability ([8]; first compound 0.000632 µM) was 0.245, the relative viability ([8]; first compound 0.02 µM) was 0.104 and the relative viability ([9]; first compound 0.0002 µM) was 0.46. For the same molecule, the relative viability ([9]; first compound 0.000632 µM) was 0.286, the relative viability ([9]; first compound 0.002 µM) was 0.234 and the relative viability ([9]; first compound 0.006325 µM) was 0.239. The relative viability ([9]; first compound 0.02 µM) was 0.163, the relative viability ([10]; first compound 0.0002 µM) was 0.351 and the relative viability ([10]; first compound 0.000632 µM) was 0.345. The relative viability ([10]; first compound 0.002 µM) was 0.279, the relative viability ([10]; first compound 0.006325 µM) was 0.175 and the relative viability ([10]; first compound 0.02 µM) was 0.16. For the same molecule, the relative viability ([11]; first compound 0.0002 µM) was 0.467, the relative viability ([11]; first compound 0.000632 µM) was 0.339 and the relative viability ([11]; first compound 0.002 µM) was 0.134. It also gave a relative viability ([11]; first compound 0.006325 µM) of 0.123, a relative viability ([11]; first compound 0.02 µM) of 0.0567 and a relative viability ([12]; first compound 0.0002 µM) of 0.6. The relative viability ([12]; first compound 0.000632 µM) was 0.574, the relative viability ([12]; first compound 0.002 µM) was 0.428 and the relative viability ([12]; first compound 0.006325 µM) was 0.141. For the same molecule, the relative viability ([12]; first compound 0.02 µM) was 0.14, the relative viability ([13]; first compound 0.0002 µM) was 0.336 and the relative viability ([13]; first compound 0.000632 µM) was 0.326. It also gave a relative viability ([13]; first compound 0.002 µM) of 0.242, a relative viability ([13]; first compound 0.006325 µM) of 0.23 and a relative viability ([13]; first compound 0.02 µM) of 0.241. For the same molecule, the relative viability ([14]; first compound 0.0002 µM) was 0.2, the relative viability ([14]; first compound 0.000632 µM) was 0.178 and the relative viability ([14]; first compound 0.002 µM) was 0.199. It also gave a relative viability ([14]; first compound 0.006325 µM) of 0.149, a relative viability ([14]; first compound 0.02 µM) of 0.14 and a relative viability ([15]; first compound 0.0002 µM) of 0.822. For the same molecule, the relative viability ([15]; first compound 0.000632 µM) was 0.694, the relative viability ([15]; first compound 0.002 µM) was 0.508 and the relative viability ([15]; first compound 0.006325 µM) was 0.102. For the same molecule, the relative viability ([15]; first compound 0.02 µM) was 0.078, the relative viability ([16]; first compound 0.0002 µM) was 0.242 and the relative viability ([16]; first compound 0.000632 µM) was 0.251. It also gave a relative viability ([16]; first compound 0.002 µM) of 0.372, a relative viability ([16]; first compound 0.006325 µM) of 0.406 and a relative viability ([16]; first compound 0.02 µM) of 0.346. For the same molecule, the relative viability ([17]; first compound 0.0002 µM) was 0.621, the relative viability ([17]; first compound 0.000632 µM) was 0.499 and the relative viability ([17]; first compound 0.002 µM) was 0.235. The relative viability ([17]; first compound 0.006325 µM) was 0.224, the relative viability ([17]; first compound 0.02 µM) was 0.148 and the relative viability ([18]; first compound 0.0002 µM) was 0.186. It also gave a relative viability ([18]; first compound 0.000632 µM) of 0.194, a relative viability ([18]; first compound 0.002 µM) of 0.164 and a relative viability ([18]; first compound 0.006325 µM) of 0.159. The relative viability ([18]; first compound 0.02 µM) was 0.126, the relative viability ([19]; first compound 0.0002 µM) was 0.137 and the relative viability ([19]; first compound 0.000632 µM) was 0.132. The relative viability ([19]; first compound 0.002 µM) was 0.0799, the relative viability ([19]; first compound 0.006325 µM) was 0.0795 and the relative viability ([19]; first compound 0.02 µM) was 0.0407. It also gave a relative viability ([20]; first compound 0.0002 µM) of 0.286, a relative viability ([20]; first compound 0.000632 µM) of 0.188 and a relative viability ([20]; first compound 0.002 µM) of 0.0514. The relative viability ([20]; first compound 0.006325 µM) was 0.0304, the relative viability ([20]; first compound 0.02 µM) was 0.0231 and the relative viability ([21]; first compound 0.0002 µM) was 0.612. For the same molecule, the relative viability ([21]; first compound 0.000632 µM) was 0.218, the relative viability ([21]; first compound 0.002 µM) was 0.171 and the relative viability ([21]; first compound 0.006325 µM) was 0.221. The relative viability ([21]; first compound 0.02 µM) was 0.127, the relative viability ([22]; first compound 0.0002 µM) was 0.429 and the relative viability ([22]; first compound 0.000632 µM) was 0.42. For the same molecule, the relative viability ([22]; first compound 0.002 µM) was 0.264, the relative viability ([22]; first compound 0.006325 µM) was 0.21 and the relative viability ([22]; first compound 0.02 µM) was 0.171.
